Assay results reported in patent publication US4562006A, “Cycloheptadiene derivatives” (Warner-Lambert Company, priority 1984, dated 1985).

Assays:
[1] = molecular target: leukotriene receptor; experiment: leukotriene receptor binding assay (RBL-1)
From the text: The details of the human leukocyte lipoxygenase assay are described below. The soybean lipoxygenase radiochemical is described in Prostaglandins, Leukotrienes, and Medicine, 11, 373-80 (1983). The leukotriene receptor binding assay is described by R. F. Bruns, W. J. Thomsen, and T. A. Pugsley in Life Sciences, 33, 645 (1983).
The following tables illustrate the activity of certain representative compounds of the present invention. The RBL-1 column represent data from the leukotriene receptor binding assay and the LDA(U) column reports on the human leukoxyte lipoxygenase assay.

[2] = molecular target: human leukocyte lipoxygenase; experiment: human leukocyte lipoxygenase assay (LDA); type: biochemical; conditions: LDA column
Procedure: An acetone-pentane powder of leukocyte and platelets was prepared from buffy coat obtained from the Michigan Red Cross and Michigan Department of Health in Lansing, Michigan, and was suspended in 5-7 volumes of cold 0.1M tris buffer, pH 7.4 containing 0.154 M NaCl. The suspension was centrifuged at 13,300 g for ten minutes at 4° C. The resultant pellet was retained, resuspended in five volumes of cold acetone, recentrifuged at 13,300 g and resuspended in five volumes of cold pentane. The pentane suspension was centrifuged for ten minutes at 13,300 g to give a pellet which was dried in the cold under vacuum with periodic pulverization. The dry powder is stable for several weeks when stored at -80° C.
This was prepared in the following manner. About 15 mg of the acetone-pentane powder is suspended in 4 ml of cold tris buffer (0.1M, pH 7.4), allowed to stand for five minutes and homogenized thoroughly. The homogenate is sonicated three times for 15 seconds each time, diluted to 7 ml with cold tris buffer (0.1M, pH 7.4) and centrifuged at 4° for 60 minutes at 13,300 g. The supernatant is retained and diluted to a total of 10 ml with cold tris buffer (0.1M, pH 7.4) to give the stock enzyme solution. […]
The enzyme reaction is followed spectrophotometrically by the appearance of a conjugated diene product at 234 nm. The reaction is monitored at 24° using a Gilford Model 2500 spectrophotometer. […]

With `CCCCCCCC1C=CCC=CC1/C=C\CCCC(=O)O` (stereo not shown) [Example 6, 5-Hexenoic acid, 6-(7-heptyl-2,5-cycloheptadien-1-yl)-] as the molecule, how does the IC50 [1] read?
The IC50 was 23.9 µM.

Which IC50 [1] does the source give for `CCCCC/C=C\C=C\C1CC1/C=C\CCCCCC(=O)O` (stereo not shown) [Example 11, 7-Octenoic acid, 8-[2-(1,3-nonadienyl)cyclopropyl]-, (Z,E,Z)] here?
The IC50 was 10.3 µM.

Which results are given for `CCCCC/C=C\C1C=CCC=CC1CCCCCC(=O)O` (stereo not shown) [Example 12, 2,5-Cycloheptadiene-1-hexanoic acid, 7-(1-heptenyl)-(Z)-]?
IC50 [2]: 0.74 µM; IC50 [1]: 26.4 µM

For `CCCCC/C=C\C=C\C1CC1/C=C\CCCC(=O)O` (stereo not shown) [Example 13, 6-[2-(1,3-nonadienyl)cyclopropyl]-5-hexenoic acid (Z,E,Z)], which IC50 [1] is on record?
The IC50 was 26.4 µM.

Which IC50 [1] does the source give for `CCCCC/C=C\C1C=CCC=CC1CCCC(=O)O` (stereo not shown) [Example 14, 2,5-cycloheptadiene-1-butanoic acid, 7-(1-heptenyl)-, (Z)-] here?
Its IC50 is 53.4 µM.

Which IC50 [1] does the source give for `CCCCC/C=C\C1C=CCCC=C1/C=C\CCCC(=O)O` (stereo not shown) [Example 18, 5-Hexenoic acid, 6-[7-(1-heptenyl)-1,5-cycloheptadien-1-yl]-] here?
The IC50 was 17.1 µM.
